From PMC10108266, “Pharmacokinetic characteristics of golidocitinib, a highly selective JAK1 inhibitor, in healthy adult participants” (Frontiers in Immunology, 2023)
Read-outs that look alike come from different tables or passages of the source.

Key:
[1] = system: CYP3A4/5 and flavin-containing monooxygenase enzyme (FMO); test: Enzymatic systems implicated in metabolism; format: in vitro ADME
[2] = JACKPOT3 single-ascending-dose plasma PK, healthy Chinese participants; format: in vivo, human; details: for AUC(0-inf) / Cmax / Vd/F / half-life / Tmax: human, plasma; for AUC(0-inf) / Cmax: geometric mean (CV%)
Excerpt: This was a SAD study in healthy adult Asian participants, with a study design similar to the SAD cohorts of JACKPOT2 study. […] A total of 32 healthy participants were randomized to receive a single dose of golidocitinib or matched placebo (6:2).
After single oral administration, serial blood samples were obtained on Day 1 at pre-dose, and at 0.5, 1, 1.5, 2, 3, 4, 6, 8, 12, 24 (Day 2), 48 (Day 3), 72 (Day 4), 120 (Day 6), 168 (Day 8) and 216 (Day 10) hours post-dose for plasma PK analysis. Urine samples were collected during the collection intervals of 0-4, 4-10, 10-24, 24-48, 48-72, 72-96, 96-120, 120-144, and 144-168 hours following a single oral dose of 100 mg for urine PK analysis. Validated LC/MS methods were used for the determination of golidocitinib in human plasma and urine by Frontage Laboratories Inc. (Shanghai). This method was cross validated by Frontage Laboratories Inc. (New Jersey, USA) and met the acceptance criteria.

[3] = In vitro binding to human plasma; format: in vitro ADME
[4] = Safety (TEAEs), JACKPOT2 SAD cohorts; format: in vivo, human; details: n = 4
Excerpt: Safety assessments included monitoring of adverse events/serious adverse events, clinical safety laboratory tests (clinical chemistry, hematology, coagulation, and urinalysis tests), 12-lead ECG, vital signs (blood pressure, pulse rate, and respiratory rate), and pulmonary function. All adverse events were coded using the Medical Dictionary for Regulatory Activities (MedDRA), version 22.0. The CTCAE 5.0 was used to define the intensity of AEs.

Permeability in vitro = format: in vitro ADME
P-glycoprotein (P-gp) = P-glycoprotein (P-gp) (Homo sapiens, UniProt P08183); test: In vitro P-gp substrate experiments; format: in vitro ADME; details: active transport saturable at high concentrations
Sequence of P-glycoprotein (P-gp) (P08183 whole entry): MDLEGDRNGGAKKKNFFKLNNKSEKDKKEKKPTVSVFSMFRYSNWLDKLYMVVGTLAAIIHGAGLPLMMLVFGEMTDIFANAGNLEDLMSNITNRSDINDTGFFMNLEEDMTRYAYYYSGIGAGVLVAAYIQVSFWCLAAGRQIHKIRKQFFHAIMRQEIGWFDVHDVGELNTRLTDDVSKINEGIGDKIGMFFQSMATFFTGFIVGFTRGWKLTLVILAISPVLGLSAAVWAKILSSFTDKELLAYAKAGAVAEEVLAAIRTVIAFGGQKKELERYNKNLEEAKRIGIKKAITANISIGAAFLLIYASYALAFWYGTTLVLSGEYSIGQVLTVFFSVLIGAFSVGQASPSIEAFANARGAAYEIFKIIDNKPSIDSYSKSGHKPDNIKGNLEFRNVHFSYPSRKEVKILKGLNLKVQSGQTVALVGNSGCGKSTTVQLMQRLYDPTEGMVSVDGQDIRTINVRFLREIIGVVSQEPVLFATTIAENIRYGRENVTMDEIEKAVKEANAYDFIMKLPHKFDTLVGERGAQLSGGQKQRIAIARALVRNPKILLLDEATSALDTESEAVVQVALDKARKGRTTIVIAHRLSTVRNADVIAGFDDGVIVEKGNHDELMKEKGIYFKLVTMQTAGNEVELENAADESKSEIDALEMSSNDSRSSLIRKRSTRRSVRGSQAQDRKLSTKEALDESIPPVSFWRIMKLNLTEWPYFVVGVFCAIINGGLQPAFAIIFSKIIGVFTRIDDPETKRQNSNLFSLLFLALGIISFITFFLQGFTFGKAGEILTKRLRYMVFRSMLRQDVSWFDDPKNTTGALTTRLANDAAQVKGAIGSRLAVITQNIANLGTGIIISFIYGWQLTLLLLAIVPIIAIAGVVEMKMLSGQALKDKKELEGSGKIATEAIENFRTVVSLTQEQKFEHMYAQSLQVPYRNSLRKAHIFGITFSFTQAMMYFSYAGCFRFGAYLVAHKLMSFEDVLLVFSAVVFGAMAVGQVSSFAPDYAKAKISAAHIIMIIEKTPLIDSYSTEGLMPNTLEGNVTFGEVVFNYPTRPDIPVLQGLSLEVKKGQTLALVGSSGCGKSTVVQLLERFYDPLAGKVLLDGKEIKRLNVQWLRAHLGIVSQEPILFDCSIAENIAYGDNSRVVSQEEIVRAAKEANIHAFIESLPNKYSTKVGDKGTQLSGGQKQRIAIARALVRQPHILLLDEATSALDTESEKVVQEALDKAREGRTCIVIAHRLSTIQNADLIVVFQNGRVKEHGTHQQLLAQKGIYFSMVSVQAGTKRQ

## COc1nn(C)cc1Nc1nccc(-c2c[nH]c3c(NC(=O)[C@@H](C)N4CCN(C)CC4)cccc23)n1 [golidocitinib, (2R)-N-[3-[2-[(3-Methoxy-1-methyl-pyrazol-4-yl)amino]pyrimidin-4-yl]-1H-indol-7-yl]-2-(4-methylpiperazin-1-yl)propenamide]
[1]
  enzymatic systems implicated in the metabolism: CYP3A4/5 and flavin-containing monooxygenase enzyme (FMO)
[2]; oral, single dose 25 mg
  AUC(0-inf): 1230 ng·h/mL
  Cmax: 40.8 ng/mL
[2]; oral, single dose 25 mg, mean (SD), read-out: Vz/F
  Vd/F: 1040 L
[2]; oral, single dose 25 mg, median (min, max), read-out: t1/2 (converted)
  half-life: 38 h
[2]; oral, single dose 25 mg, median (min, max), read-out: tmax
  Tmax: 3 h
[2]; oral, single dose 50 mg
  AUC(0-inf): 2370 ng·h/mL
  Cmax: 75 ng/mL
[2]; oral, single dose 50 mg, mean (SD), read-out: Vz/F
  Vd/F: 1160 L
[2]; oral, single dose 50 mg, median (min, max), read-out: t1/2 (converted)
  half-life: 39.1 h
[2]; oral, single dose 50 mg, median (min, max), read-out: tmax
  Tmax: 2 h
[2]; oral, single dose 100 mg
  AUC(0-inf): 4740 ng·h/mL
  Cmax: 184 ng/mL
[2]; oral, single dose 100 mg, mean (SD), read-out: Vz/F
  Vd/F: 826 L
[2]; oral, single dose 100 mg, median (min, max), read-out: t1/2 (converted)
  half-life: 28.3 h
[2]; oral, single dose 100 mg, median (min, max), read-out: tmax
  Tmax: 2 h
[2]; oral, single dose 150 mg
  AUC(0-inf): 8340 ng·h/mL
  Cmax: 280 ng/mL
[2]; oral, single dose 150 mg, mean (SD), read-out: Vz/F
  Vd/F: 1210 L
[2]; oral, single dose 150 mg, median (min, max), read-out: t1/2 (converted)
  half-life: 46.7 h
[2]; oral, single dose 150 mg, median (min, max), read-out: tmax
  Tmax: 1.75 h
[2]; single oral administration, Chinese participants, read-out: mean Vz/F
  Vd/F: 826 to 1210 L
[2]; single oral administration, across the dose range, Chinese participants, read-out: median terminal half-life (t1/2)
  half-life: 28.3 to 46.7 h
[2]; single oral administration, across the dose range, Chinese participants, read-out: median tmax
  Tmax: 1.75 to 3 h
[2]; single dose 50 mg, mean (SD)
  CL/F: 21.2 (13.1) L/hr
[2]; single dose 100 mg, mean (SD)
  CL/F: 21.4 (16.5) L/hr
[2]; single dose 150 mg, mean (SD)
  CL/F: 18.1 (14.2) L/hr
[3]; human plasma of Caucasian and Chinese, in vitro
  bound to human plasma: ~ 63%
[3]; human, plasma, read-out: free fraction in plasma
  fraction unbound: 0.373
[4]; 5 mg single dose
  ALT Increased: 0 n (%)
  AST Increased: 0 n (%)
  Anemia: 1 (25.0%) n (%)
  Blood and Lymphatic System Disorders: 2 (50.0%) n (%)
  Chest Discomfort: 0 n (%)
  Dyspnea: 0 n (%)
  Eosinophilia: 2 (50.0%) n (%)
  General Disorders and Administration Site Conditions: 0 n (%)
  Investigations: 0 n (%)
  N-Terminal Pro-BNP: 0 n (%)
  Nasal Congestion: 1 (25.0%) n (%)
  Neutropenia: 0 n (%)
  Oropharyngeal Pain: 1 (25.0%) n (%)
  Respiratory, Thoracic and Mediastinal Disorders: 2 (50.0%) n (%)
  Subjects with at least one TEAE: 2 (50.0%) n (%)
  Thrombocytosis: 0 n (%)
[4]; 20 mg single dose
  ALT Increased: 0 n (%)
  AST Increased: 0 n (%)
  Anemia: 0 n (%)
  Blood and Lymphatic System Disorders: 2 (50.0%) n (%)
  Chest Discomfort: 0 n (%)
  Dyspnea: 0 n (%)
  Eosinophilia: 0 n (%)
  General Disorders and Administration Site Conditions: 0 n (%)
  Investigations: 0 n (%)
  N-Terminal Pro-BNP: 0 n (%)
  Nasal Congestion: 0 n (%)
  Neutropenia: 1 (25.0%) n (%)
  Oropharyngeal Pain: 0 n (%)
  Respiratory, Thoracic and Mediastinal Disorders: 0 n (%)
  Subjects with at least one TEAE: 2 (50.0%) n (%)
  Thrombocytosis: 1 (25.0%) n (%)
[4]; 50 mg single dose
  ALT Increased: 0 n (%)
  AST Increased: 0 n (%)
  Anemia: 0 n (%)
  Blood and Lymphatic System Disorders: 0 n (%)
  Chest Discomfort: 0 n (%)
  Dyspnea: 0 n (%)
  Eosinophilia: 0 n (%)
  General Disorders and Administration Site Conditions: 0 n (%)
  Investigations: 1 (25.0%) n (%)
  N-Terminal Pro-BNP: 1 (25.0%) n (%)
  Nasal Congestion: 0 n (%)
  Neutropenia: 0 n (%)
  Oropharyngeal Pain: 0 n (%)
  Respiratory, Thoracic and Mediastinal Disorders: 0 n (%)
  Subjects with at least one TEAE: 1 (25.0%) n (%)
  Thrombocytosis: 0 n (%)
[4]; 100 mg single dose
  ALT Increased: 0 n (%)
  AST Increased: 0 n (%)
  Anemia: 0 n (%)
  Blood and Lymphatic System Disorders: 1 (25.0%) n (%)
  Chest Discomfort: 1 (25.0%) n (%)
  Dyspnea: 0 n (%)
  Eosinophilia: 0 n (%)
  General Disorders and Administration Site Conditions: 1 (25.0%) n (%)
  Investigations: 0 n (%)
  N-Terminal Pro-BNP: 0 n (%)
  Nasal Congestion: 0 n (%)
  Neutropenia: 0 n (%)
  Oropharyngeal Pain: 0 n (%)
  Respiratory, Thoracic and Mediastinal Disorders: 0 n (%)
  Subjects with at least one TEAE: 1 (25.0%) n (%)
  Thrombocytosis: 1 (25.0%) n (%)
[4]; 150 mg single dose
  ALT Increased: 0 n (%)
  AST Increased: 0 n (%)
  Anemia: 0 n (%)
  Blood and Lymphatic System Disorders: 0 n (%)
  Chest Discomfort: 0 n (%)
  Dyspnea: 0 n (%)
  Eosinophilia: 0 n (%)
  General Disorders and Administration Site Conditions: 0 n (%)
  Investigations: 0 n (%)
  N-Terminal Pro-BNP: 0 n (%)
  Nasal Congestion: 0 n (%)
  Neutropenia: 0 n (%)
  Oropharyngeal Pain: 0 n (%)
  Respiratory, Thoracic and Mediastinal Disorders: 0 n (%)
  Subjects with at least one TEAE: 0 n (%)
  Thrombocytosis: 0 n (%)
Permeability in vitro
  permeability: high permeability
P-glycoprotein (P-gp)
  P-gp substrate status: P-glycoprotein (P-gp) substrate
